Here are results for 21 molecules from patent US20230183219A1, “CONDENSED SUBSTITUTED HYDROPYRROLES AS ANTAGONISTS OF THE MUSCARINIC ACETYLCHOLINE RECEPTOR M4” (Vanderbilt University, priority 2020, published 2023).

The assay concerns the target T1, Human M4 (Homo sapiens, UniProt P08173).
T1 construct: Human or rat M4 cDNA, along with the chimeric G protein Gqi5, were transfected into Chinese hamster ovary (CHO-K1) cells; expressed in transfected cells; host or cells: CHO-K1 (Chinese hamster ovary, ATCC), stably co-expressing Gqi5
T1 sequence (P08173 1-479): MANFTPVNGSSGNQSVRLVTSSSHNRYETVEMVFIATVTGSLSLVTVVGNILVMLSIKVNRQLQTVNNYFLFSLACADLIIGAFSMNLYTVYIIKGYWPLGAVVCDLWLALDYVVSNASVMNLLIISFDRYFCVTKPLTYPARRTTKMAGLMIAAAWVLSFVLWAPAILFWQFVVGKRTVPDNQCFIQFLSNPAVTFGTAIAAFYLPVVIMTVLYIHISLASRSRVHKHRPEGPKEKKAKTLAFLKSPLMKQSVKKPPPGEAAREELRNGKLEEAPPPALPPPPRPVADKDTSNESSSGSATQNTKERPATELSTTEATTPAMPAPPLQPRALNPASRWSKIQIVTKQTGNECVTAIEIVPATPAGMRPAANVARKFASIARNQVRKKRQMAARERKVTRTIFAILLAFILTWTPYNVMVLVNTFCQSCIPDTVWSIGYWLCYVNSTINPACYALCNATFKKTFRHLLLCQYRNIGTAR
Kind of assay: mAChR M4 cell-based functional assay (calcium flux, decrease of EC80 acetylcholine response). To be noted: for remaining activity at 30 µM / Human M4 Emin: % ACh maximum at 30 μM; for remaining activity at 30 µM: read-out: Human M4 Emin; for IC50: M4/Gqi5/CHO-K1 cells, decrease of response to EC80 acetylcholine. The gist of the method: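 IC50 reflects inhibition of an EC80 acetylcholine calcium response, fitted by four-parameter logistic equation. Fluo-4-loaded M4/Gqi5 CHO-K1 cells received compound (10-point, 1:3 series) 2 s into the FDSS read, then EC20 acetylcholine at 143 s and EC80 at 268 s.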
A general note: A change in cytosolic calcium serves as a functional read-out for many receptors and channels.

As for `[2H]C([2H])(C1CCOCC1)N1C[C@H]2C[C@H](Nc3nnc(-c4ccc(F)cc4C)cc3C(F)(F)F)C[C@H]2C1` [Example 110, (3aR,5s,6aS)-N-(6-(4-fluoro-2-methylphenyl)-4-(trifluoromethyl)pyridazin-3-yl)-2-((tetrahydro-2H-pyran-4-yl)methyl-d2)octahydro-cyclopenta[c]pyrrol-5-amine], the remaining activity at 30 µM turned out to be 3% and the IC50 (as a rule, the midpoint of a concentration-inhibition curve) came out at 46.7 nM.
For `CCOc1ccc(-c2cc(C(F)(F)F)c(N[C@H]3C[C@@H]4CN(CC5CCOCC5)C[C@@H]4C3)nn2)c(F)c1F` [Example 56, (3aR,5s,6aS)-N-(6-(4-ethoxy-2,3-difluorophenyl)-4-(trifluoro-methyl)pyridazin-3-yl)-2-((tetrahydro-2H-pyran-4-yl)methyl)octahydro-cyclopenta[c]pyrrol-5-amine], the remaining activity at 30 µM turned out to be 3% and the IC50 was found to be 234 nM.
For `Cc1cc(F)ccc1-c1cc(C(F)(F)F)c(N[C@H]2C[C@@H]3CN(CC4CCOCC4)C[C@@H]3C2)nn1` [Example 74, (3aR,5s,6aS)-N-(6-(4-fluoro-2-methylphenyl)-4-(trifluoromethyl)pyridazin-3-yl)-2-((tetrahydro-2H-pyran-4-yl)methyl)octahydro-cyclopenta[c]pyrrol-5-amine] the same measures were 3% and 38.9 nM.
On to `N#Cc1cccc(-c2cc(C(F)(F)F)c(N[C@H]3C[C@@H]4CN(CC5CCOCC5)C[C@@H]4C3)nn2)c1F` [Example 60, 2-fluoro-3-(6-(((3aR,5s,6aS)-2-((tetrahydro-2H-pyran-4-yl)methyl)octahydro-cyclopenta[c]pyrrol-5-yl)amino)-5-(trifluoro-methyl)pyridazin-3-yl)benzonitrile], for which the remaining activity at 30 µM amounted to 4% and the IC50 is 232 nM.
As for `C[C@H]1CCCN(c2cc(C(F)(F)F)c(N[C@H]3C[C@@H]4CN(CC5CCOCC5)C[C@@H]4C3)nn2)C1` [Example 6, (3aR,5s,6aS)—N-(6-((S)-3-methylpiperidin-1-yl)-4-(trifluoromethyl)pyridazin-3-yl)-2-((tetrahydro-2H-pyran-4-yl)methyl)octahydrocyclopenta[c]pyrrol-5-amine], the “Human M4 Emin” value was 4% and the IC50 is 1220 nM.
Regarding `Cn1cc2cc(-c3cc(C(F)(F)F)c(N[C@H]4C[C@@H]5CN(C[C@@H]6CC7CCC6O7)C[C@@H]5C4)nn3)ccc2n1` (stereo partly drawn) [Example 26, (3aR,5s,6aS)-2-(((2S)-7-oxabicyclo[2.2.1]heptan-2-yl)methyl)-N-(6-(2-methyl-2H-indazol-5-yl)-4-(trifluoromethyl)pyridazin-3-yl)octahydro-cyclopenta[c]pyrrol-5-amine], the remaining activity at 30 µM is 4% and the IC50 is 19.4 nM.
As to `Fc1ccc(F)c(-c2cc(C(F)(F)F)c(N[C@H]3C[C@@H]4CN(Cc5ccccn5)C[C@@H]4C3)nn2)c1` [Example 48, (3aR,5s,6aS)-N-(6-(2,5-difluorophenyl)-4-(trifluoromethyl)pyridazin-3-yl)-2-(pyridin-2-ylmethyl)octahydro-cyclopenta[c]pyrrol-5-amine], the remaining activity at 30 µM amounted to 3% and the IC50 turned out to be 615 nM.
For the molecule `Cc1cc(-c2cc(C(F)(F)F)c(N[C@H]3C[C@@H]4CN(CC5CCOCC5)C[C@@H]4C3)nn2)c(C)cc1F` [Example 51, (3aR,5s,6aS)-N-(6-(4-fluoro-2,5-dimethylphenyl)-4-(trifluoromethyl)pyridazin-3-yl)-2-((tetrahydro-2H-pyran-4-yl)methyl)octahydro-cyclopenta[c]pyrrol-5-amine], the remaining activity at 30 µM stood at 3% and the IC50 worked out at 242 nM.
On to `Cc1ccc(F)cc1-c1cc(C(F)(F)F)c(N[C@H]2C[C@@H]3CN(C[C@@H]4CCOC4)C[C@@H]3C2)nn1` [Example 30, (3aR,5s,6aS)-N-(6-(5-fluoro-2-methylphenyl)-4-(trifluoromethyl)pyridazin-3-yl)-2-(((S)-tetrahydrofuran-3-yl)methyl)octahydro-cyclopenta[c]pyrrol-5-amine], for which the remaining activity at 30 µM was determined as 4% and the IC50 came out at 55.6 nM.
With `Cc1ccc(F)cc1-c1cc(C(F)(F)F)c(N[C@H]2C[C@@H]3CN(CC4CCCCO4)C[C@@H]3C2)nn1` (single isomer, unassigned) [Example 119], the “Human M4 Emin” value worked out at 3% and the IC50 is 14 nM.
For the molecule `Cc1ccc(F)cc1-c1cc(C(F)(F)F)c(N[C@H]2C[C@@H]3CN(CC4COCC4C)C[C@@H]3C2)nn1` (stereo partly drawn) [Example 29, (3aR,5s,6aS)-N-(6-(5-fluoro-2-methylphenyl)-4-(trifluoromethyl)pyridazin-3-yl)-2-((4-methyltetrahydro-furan-3-yl)methyl)octahydro-cyclopenta[c]pyrrol-5-amine], the remaining activity at 30 µM was 5% and the IC50 turned out to be 52.3 nM.
Consider `Fc1cccc(-c2cc(C(F)(F)F)c(N[C@H]3C[C@@H]4CN(Cc5ccccn5)C[C@@H]4C3)nn2)c1` [Example 105, (3aR,5s,6aS)-N-(6-(3-fluorophenyl)-4-(trifluoro-methyl)pyridazin-3-yl)-2-(pyridin-2-ylmethyl)octahydro-cyclopenta[c]pyrrol-5-amine], for which the remaining activity at 30 µM came out at 2% and the IC50 was 467 nM.
Taken in the same sequence, the figures for `Cn1cc2cc(-c3cnc(N[C@H]4C[C@@H]5CN(Cc6ccc7c(c6)OCO7)C[C@@H]5C4)nc3)ccc2n1` [Example 13, (3aR,5s,6aS)-2-(benzo[d][1,3]dioxol-5-ylmethyl)-N-(5-(2-methyl-2H-indazol-5-yl)pyrimidin-2-yl)octahydro-cyclopenta[c]pyrrol-5-amine] were 10% and 5290 nM.
For `FC(F)(F)c1cc(-c2cccnc2)nnc1N[C@H]1C[C@@H]2CN(CC3CCOCC3)C[C@@H]2C1` [Example 68, (3aR,5s,6aS)-N-(6-(pyridin-3-yl)-4-(trifluoro-methyl)pyridazin-3-yl)-2-((tetrahydro-2H-pyran-4-yl)methyl)octahydro-cyclopenta[c]pyrrol-5-amine], the remaining activity at 30 µM came to 3% and the 50% inhibitory concentration (IC50) was 161 nM.
On to `CCOc1cc(F)c(-c2cc(C(F)(F)F)c(N[C@H]3C[C@@H]4CN(CC5CCOCC5)C[C@@H]4C3)nn2)cc1F` [Example 91, (3aR,5s,6aS)-N-(6-(4-ethoxy-2,5-difluorophenyl)-4-(trifluoromethyl)pyridazin-3-yl)-2-((tetrahydro-2H-pyran-4-yl)methyl)octahydro-cyclopenta[c]pyrrol-5-amine], for which the remaining activity at 30 µM came to 3% and the half-inhibitory concentration (IC50) was 280 nM.
On to `Fc1ccc(C(F)(F)F)cc1-c1cc(C(F)(F)F)c(N[C@H]2C[C@@H]3CN(CC4CCOCC4)C[C@@H]3C2)nn1` [Example 89, (3aR,5s,6aS)-N-(6-(2-fluoro-5-(trifluoromethyl)phenyl)-4-(trifluoromethyl)pyridazin-3-yl)-2-((tetrahydro-2H-pyran-4-yl)methyl)octahydro-cyclopenta[c]pyrrol-5-amine], for which the remaining activity at 30 µM worked out at 4% and the IC50 worked out at 634 nM.
For `Cn1cc2cc(-c3cc(C(F)(F)F)c(N[C@H]4C[C@@H]5CN(C[C@H]6COCCO6)C[C@@H]5C4)nn3)ccc2n1` [Example 34, (3aR,5s,6aS)-2-(((S)-1,4-dioxan-2-yl)methyl)-N-(6-(2-methyl-2H-indazol-5-yl)-4-(trifluoromethyl)pyridazin-3-yl)octahydro-cyclopenta[c]pyrrol-5-amine], the remaining activity at 30 µM stood at 6% and the IC50 was found to be 32.9 nM.
`Cc1ccc(F)cc1-c1cc(C(F)(F)F)c(N[C@H]2C[C@@H]3CN(CC4COCCO4)C[C@@H]3C2)nn1` (stereo partly drawn) [Example 19, (3aR,5s,6aS)-2-((1,4-dioxan-2-yl)methyl)-N-(6-(5-fluoro-2-methylphenyl)-4-(trifluoromethyl)pyridazin-3-yl)octahydro-cyclopenta[c]pyrrol-5-amine]: the remaining activity at 30 µM is 2% and the IC50 is 4.5 nM.
Take `CC(C)(C)CCN1C[C@H]2C[C@H](Nc3ncc(-c4cc(F)ccc4Cl)cn3)C[C@H]2C1` [Example 15, (3aR,5s,6aS)-N-(5-(2-chloro-5-fluorophenyl)pyrimidin-2-yl)-2-(3,3-dimethylbutyl)octahydro-cyclopenta[c]pyrrol-5-amine]: the remaining activity at 30 µM was 3% and the concentration for half-maximal inhibition (IC50) came to 3330 nM.
For `Cc1cc(-c2cc(C(F)(F)F)c(N[C@H]3C[C@@H]4CN(CC5CCOCC5)C[C@@H]4C3)nn2)c(F)cc1F` [Example 92, (3aR,5s,6aS)-N-(6-(2,4-difluoro-5-methylphenyl)-4-(trifluoromethyl)pyridazin-3-yl)-2-((tetrahydro-2H-pyran-4-yl)methyl)octahydro-cyclopenta[c]pyrrol-5-amine], the remaining activity at 30 µM came out at 2% and the IC50 turned out to be 338 nM.
With `Cn1cc2cc(-c3cc(C(F)(F)F)c(N[C@H]4C[C@@H]5CN(CC6CCCOC6)C[C@@H]5C4)nn3)ccc2n1` (single isomer, unassigned) [Example 36], the remaining activity at 30 µM came to 4% and the IC50 came out at 99.7 nM.
